# Reference: patent US11266715B2, “C3A receptor agonists for use against ischemic brain injury, stroke, traumatic brain injury, spinal cord injury and neurodegenerative disorders” (priority 2016, dated 2022)
# Tests used:
# GFAP = GFAP immunoreactivity in dorsal hippocampus after neonatal HI; type: in vivo, mouse; settings: P55, 3 days treatment after HI
# Procedure: On P51 (long-term study) or P55 (short-term study), mice were deeply anesthetized with thiopental [Pentothal Sodium (0.01 ml/g body weight), Hospira, Ill., USA)] and transcardially perfused with 0.9% saline, followed by 4% paraformaldehyde (PFA) in 0.1 M PBS. Brains were removed and post-fixed in 4% PFA at 4° C. for 24 h followed by 70% ethanol for 24 h. Tissue was processed using an automatic tissue processor (SAKURA Tissue Tek VIP 3000, Tournai, Belgium) and embedded in paraffin. Brains were cut at room temperature into 8-μm serial coronal sections using a sliding microtome (Microm HM 450, Thermo Scientific, Massachusetts, USA), attached to silane coated slides and dried at RT. […]
# NeuN positive cells, GFAP positive relative area, as well as GAP-43, SYN, and VGLUT1 positive puncta were counted by using MetaMorph software (ver. 7.8.6, Molecular Devices, CA, USA) on confocal images obtained with a 20× (NeuN and GFAP) or 63× (GAP-43, SYN, and VGLUT1) objective (Carl Zeiss LSM 700 Laser Scanning Microscope, Jena, Germany). Iba-1 positive cell somata were counted on bright field images obtained with a 20× objective (Nikon Eclipse 80i). […]
# [1] = test system: newly differentiated neurons; settings: in vitro; cited from earlier work
substance,measurement,setting,value
"C3a: Purified human C3a peptide (Complement Technologies), C3a receptor agonist, amino acid sequence SEQ ID NO: 1",GFAP relative area in CA1 and DG,GFAP,did not differ between the hemispheres or in comparison with sham mice
same,neurite outgrowth,[1],increased neurite outgrowth
